Consider 3 compounds from PubChem BioAssay AID1259407 (Chemical Carcinogenesis Research Information System (CCRIS), 2018).

The subject of the data set is CCRIS mutagenicity, Ames/micronucleus/aberration tests. As to the kind of experiment: CCRIS mutagenicity studies.
Setting [1] is: Test System: AMES SALMONELLA TYPHIMURIUM, Strain/Indicator: TA97, Metabolic Activation: NONE, Method: STANDARD PLATE.
Where [2] appears, read: Test System: AMES SALMONELLA TYPHIMURIUM, Strain/Indicator: TA98, Metabolic Activation: NONE, Method: STANDARD PLATE.
The mark [3] stands for this setting: Test System: AMES SALMONELLA TYPHIMURIUM, Strain/Indicator: TA104, Metabolic Activation: NONE, Method: STANDARD PLATE.
The mark [4] stands for this setting: Test System: AMES SALMONELLA TYPHIMURIUM, Strain/Indicator: TA1535, Metabolic Activation: NONE, Method: STANDARD PLATE.
Setting [5] is: Test System: AMES SALMONELLA TYPHIMURIUM, Strain/Indicator: TA1537, Metabolic Activation: NONE, Method: STANDARD PLATE.
The mark [6] stands for this setting: Test System: AMES SALMONELLA TYPHIMURIUM, Strain/Indicator: TA1538, Metabolic Activation: NONE, Method: STANDARD PLATE.

SMILES strings stand for the structures. The source made the active and inactive calls. The rule behind the calls is not given here.

Regarding `O=C1NCCN1c1ncc([N+](=O)[O-])s1`, the mutagenic call is, setting by setting: (Test System: AMES SALMONELLA TYPHIMURIUM, Strain/Indicator: TA96(NR), Metabolic Activation: NONE, Method: STANDARD PLATE) “inactive; negative”; (Test System: AMES SALMONELLA TYPHIMURIUM, Strain/Indicator: TA96(NRB), Metabolic Activation: NONE, Method: PREINCUBATION) “active; positive”; (Test System: AMES SALMONELLA TYPHIMURIUM, Strain/Indicator: TA96(NRB), Metabolic Activation: RAT, LIVER, S-9, AROCLOR 1254, Method: PREINCUBATION) “active; positive”; (Test System: AMES SALMONELLA TYPHIMURIUM, Strain/Indicator: TA96(NRC), Metabolic Activation: NONE, Method: PREINCUBATION) “inactive; negative”; (Test System: AMES SALMONELLA TYPHIMURIUM, Strain/Indicator: TA96(NRC), Metabolic Activation: RAT, LIVER, S-9, AROCLOR 1254, Method: PREINCUBATION) “inactive; negative”; (Test System: AMES SALMONELLA TYPHIMURIUM, Strain/Indicator: TA96, Metabolic Activation: NONE, Method: PREINCUBATION) “active; positive”. In addition, the mutagenic call is “active; positive” (Test System: AMES SALMONELLA TYPHIMURIUM, Strain/Indicator: TA96, Metabolic Activation: NONE, Method: STANDARD PLATE); “active; positive” (Test System: AMES SALMONELLA TYPHIMURIUM, Strain/Indicator: TA96, Metabolic Activation: RAT, LIVER, S-9, AROCLOR 1254, Method: PREINCUBATION); “active; positive” (Test System: AMES SALMONELLA TYPHIMURIUM, Strain/Indicator: TA97, Metabolic Activation: NONE, Method: PREINCUBATION); “active; positive” under setting [1]; “active; positive” (Test System: AMES SALMONELLA TYPHIMURIUM, Strain/Indicator: TA97, Metabolic Activation: RAT, LIVER, S-9, AROCLOR 1254, Method: PREINCUBATION); “active; positive” (Test System: AMES SALMONELLA TYPHIMURIUM, Strain/Indicator: TA98(NR), Metabolic Activation: NONE, Method: PREINCUBATION). The mutagenic call by setting is: (Test System: AMES SALMONELLA TYPHIMURIUM, Strain/Indicator: TA98(NR), Metabolic Activation: NONE, Method: STANDARD PLATE) “inactive; negative”; (Test System: AMES SALMONELLA TYPHIMURIUM, Strain/Indicator: TA98(NR), Metabolic Activation: RAT, LIVER, S-9, AROCLOR 1254, Method: PREINCUBATION) “active; positive”; (Test System: AMES SALMONELLA TYPHIMURIUM, Strain/Indicator: TA98, Metabolic Activation: NONE, Method: PREINCUBATION) “active; positive”; under setting [2], “active; positive”; (Test System: AMES SALMONELLA TYPHIMURIUM, Strain/Indicator: TA98, Metabolic Activation: RAT, LIVER, S-9, AROCLOR 1254, Method: PREINCUBATION) “active; positive”; (Test System: AMES SALMONELLA TYPHIMURIUM, Strain/Indicator: TA98, Metabolic Activation: RAT, LIVER, S-9, AROCLOR 1254 OR PHENOBARBITOL, Method: STANDARD PLATE) “active; positive”. The mutagenic call (Test System: AMES SALMONELLA TYPHIMURIUM, Strain/Indicator: TA98, Metabolic Activation: RAT, LIVER, S-9, KC500 OR PHENOBARBITAL, Method: LIQUID SUSPENSION) was “active; positive”; the mutagenic call (Test System: AMES SALMONELLA TYPHIMURIUM, Strain/Indicator: TA100(NR), Metabolic Activation: NONE, Method: PREINCUBATION) is “active; positive”; the mutagenic call (Test System: AMES SALMONELLA TYPHIMURIUM, Strain/Indicator: TA100(NR), Metabolic Activation: NONE, Method: STANDARD PLATE) is “inactive; negative”; the mutagenic call (Test System: AMES SALMONELLA TYPHIMURIUM, Strain/Indicator: TA100(NR), Metabolic Activation: RAT, LIVER, S-9, AROCLOR 1254, Method: PREINCUBATION) is “active; positive”; the mutagenic call (Test System: AMES SALMONELLA TYPHIMURIUM, Strain/Indicator: TA100, Metabolic Activation: NONE, Method: PREINCUBATION) is “active; positive”; the mutagenic call (Test System: AMES SALMONELLA TYPHIMURIUM, Strain/Indicator: TA100, Metabolic Activation: RAT, LIVER, S-9, AROCLOR 1254, Method: PREINCUBATION) was “active; positive”. In addition, the mutagenic call was “active; positive” (Test System: AMES SALMONELLA TYPHIMURIUM, Strain/Indicator: TA100, Metabolic Activation: RAT, LIVER, S-9, AROCLOR 1254 OR PHENOBARBITOL, Method: STANDARD PLATE); “active; positive” (Test System: AMES SALMONELLA TYPHIMURIUM, Strain/Indicator: TA100, Metabolic Activation: RAT, LIVER, S-9, KC500 OR PHENOBARBITAL, Method: LIQUID SUSPENSION); “active; positive” (Test System: AMES SALMONELLA TYPHIMURIUM, Strain/Indicator: TA102(NRD), Metabolic Activation: NONE, Method: PREINCUBATION); “active; positive” (Test System: AMES SALMONELLA TYPHIMURIUM, Strain/Indicator: TA102(NRD), Metabolic Activation: RAT, LIVER, S-9, AROCLOR 1254, Method: PREINCUBATION); “active; positive” (Test System: AMES SALMONELLA TYPHIMURIUM, Strain/Indicator: TA102, Metabolic Activation: NONE, Method: PREINCUBATION); “active; positive” (Test System: AMES SALMONELLA TYPHIMURIUM, Strain/Indicator: TA102, Metabolic Activation: NONE, Method: STANDARD PLATE). Besides, the mutagenic call was “active; positive” (Test System: AMES SALMONELLA TYPHIMURIUM, Strain/Indicator: TA102, Metabolic Activation: RAT, LIVER, S-9, AROCLOR 1254, Method: PREINCUBATION); “inactive; negative” under setting [3]; “inactive; negative” under setting [4]; “inactive; negative” (Test System: AMES SALMONELLA TYPHIMURIUM, Strain/Indicator: TA1535, Metabolic Activation: RAT, LIVER, S-9, AROCLOR 1254 OR PHENOBARBITOL, Method: STANDARD PLATE); “inactive; negative” under setting [5]; “inactive; negative” (Test System: AMES SALMONELLA TYPHIMURIUM, Strain/Indicator: TA1537, Metabolic Activation: RAT, LIVER, S-9, AROCLOR 1254 OR PHENOBARBITOL, Method: STANDARD PLATE). Besides, the mutagenic call was “active; positive” under setting [6]; “active; positive” (Test System: AMES SALMONELLA TYPHIMURIUM, Strain/Indicator: TA1538, Metabolic Activation: RAT, LIVER, S-9, AROCLOR 1254 OR PHENOBARBITOL, Method: STANDARD PLATE); “active; positive” (Test System: E. COLI, Strain/Indicator: WP2, Metabolic Activation: NONE, Method: SPOT); “active; positive” (Test System: E. COLI, Strain/Indicator: WP2 UVRA, Metabolic Activation: NONE, Method: SPOT); “active; positive” (Test System: E. COLI, Strain/Indicator: WP2 UVRA, Metabolic Activation: NONE, Method: STANDARD PLATE).
Turning to `C[N+](C)(C)CC1CO1` (stereo unspecified), the mutagenic call (Test System: UDS RAT HEPATOCYTES, Strain/Indicator: THY INCORP, Metabolic Activation: NONE) is “active; positive”.
Turning to `CCC(CCOCn1cc[n+](C)c1/C=N/O)[N+](=O)[O-]` (stereo unspecified), the mutagenic call was “inactive; negative” under setting [1]; “inactive; negative” (Test System: AMES SALMONELLA TYPHIMURIUM, Strain/Indicator: TA97, Metabolic Activation: S-9, Method: STANDARD PLATE); “inactive; negative” under setting [2]; “inactive; negative” (Test System: AMES SALMONELLA TYPHIMURIUM, Strain/Indicator: TA98, Metabolic Activation: S-9, Method: STANDARD PLATE); “inactive; negative” (Test System: AMES SALMONELLA TYPHIMURIUM, Strain/Indicator: TA100, Metabolic Activation: NONE, Method: STANDARD PLATE); “inactive; negative” (Test System: AMES SALMONELLA TYPHIMURIUM, Strain/Indicator: TA100, Metabolic Activation: S-9, Method: STANDARD PLATE). For the same compound, the mutagenic call reads like this: under setting [3], “inactive; negative”; (Test System: AMES SALMONELLA TYPHIMURIUM, Strain/Indicator: TA104, Metabolic Activation: S-9, Method: STANDARD PLATE) “inactive; negative”; under setting [4], “inactive; negative”; (Test System: AMES SALMONELLA TYPHIMURIUM, Strain/Indicator: TA1535, Metabolic Activation: S-9, Method: STANDARD PLATE) “inactive; negative”; under setting [5], “inactive; negative”; (Test System: AMES SALMONELLA TYPHIMURIUM, Strain/Indicator: TA1537, Metabolic Activation: S-9, Method: STANDARD PLATE) “inactive; negative”. In addition, the mutagenic call is “inactive; negative” under setting [6] and “inactive; negative” (Test System: AMES SALMONELLA TYPHIMURIUM, Strain/Indicator: TA1538, Metabolic Activation: S-9, Method: STANDARD PLATE).
